The values that follow come from patent EP4796538A1, “NOVEL QUINOXALINE COMPOUNDS, MANUFACTURING METHOD THEREOF, AND USES THEREOF” (Gachon University of Industry-Academic Cooperation …, priority 2023, dated 2025).

The target of one experiment is T1, RET-CCDC6 (PTC1) (Homo sapiens, UniProt P07949).
T1 construct: purchased Reaction Biology Corp
As to the kind of experiment: Kinase panel inhibition, radiolabeled [γ-33P] ATP (Reaction Biology Corp). The class given is biochemical. The settings on record: compound at 10 uM, ATP 1 µM.

The next experiment has as its system A-549. Description: Cell proliferation inhibition, Cell Counting Kit-8, non-small cell lung cancer cell line. The class given is cell-based. The conditions noted are these: A-549 cell line; 72 hours incubation; test concentration not given. On the technique in general: Formazan colour is commonly taken as a measure of viable cells.
Another experiment deals with T2, RET (G810S/M918T) (Homo sapiens, UniProt P07949, G810S/M918T).
T2 construct: purchased Reaction Biology Corp
Description: Kinase panel inhibition, radiolabeled [γ-33P] ATP (Reaction Biology Corp). In kind it is biochemical. The settings on record: compound at 10 uM, ATP 1 µM.

For the next experiment, the target named is T3, RET(G810R) (Homo sapiens, UniProt P07949, G810R).
T3 construct: purchased Reaction Biology Corp
Described as above. The class given is biochemical. The conditions noted are these: compound at 0.1 uM; ATP 10 µM; read-out: % Enzyme Activity (relative to DMSO controls) G810R.

Where [1] appears, read: Data 1, read-out: % Enzyme Activity (relative to DMSO controls) RET-CCDC6 (PTC1) Data 1.
Setting [2] is: Data 2, read-out: % Enzyme Activity (relative to DMSO controls) RET-CCDC6 (PTC1) Data 2.
The mark [3] stands for this setting: Data 1, read-out: % Enzyme Activity (relative to DMSO controls) RET (G810S/M918T) Data 1.
The mark [4] stands for this setting: Data 2, read-out: % Enzyme Activity (relative to DMSO controls) RET (G810S/M918T) Data 2.

Like-named read-outs stand apart in the source and are kept apart here.

T1 sequence (P07949 whole entry, looked up): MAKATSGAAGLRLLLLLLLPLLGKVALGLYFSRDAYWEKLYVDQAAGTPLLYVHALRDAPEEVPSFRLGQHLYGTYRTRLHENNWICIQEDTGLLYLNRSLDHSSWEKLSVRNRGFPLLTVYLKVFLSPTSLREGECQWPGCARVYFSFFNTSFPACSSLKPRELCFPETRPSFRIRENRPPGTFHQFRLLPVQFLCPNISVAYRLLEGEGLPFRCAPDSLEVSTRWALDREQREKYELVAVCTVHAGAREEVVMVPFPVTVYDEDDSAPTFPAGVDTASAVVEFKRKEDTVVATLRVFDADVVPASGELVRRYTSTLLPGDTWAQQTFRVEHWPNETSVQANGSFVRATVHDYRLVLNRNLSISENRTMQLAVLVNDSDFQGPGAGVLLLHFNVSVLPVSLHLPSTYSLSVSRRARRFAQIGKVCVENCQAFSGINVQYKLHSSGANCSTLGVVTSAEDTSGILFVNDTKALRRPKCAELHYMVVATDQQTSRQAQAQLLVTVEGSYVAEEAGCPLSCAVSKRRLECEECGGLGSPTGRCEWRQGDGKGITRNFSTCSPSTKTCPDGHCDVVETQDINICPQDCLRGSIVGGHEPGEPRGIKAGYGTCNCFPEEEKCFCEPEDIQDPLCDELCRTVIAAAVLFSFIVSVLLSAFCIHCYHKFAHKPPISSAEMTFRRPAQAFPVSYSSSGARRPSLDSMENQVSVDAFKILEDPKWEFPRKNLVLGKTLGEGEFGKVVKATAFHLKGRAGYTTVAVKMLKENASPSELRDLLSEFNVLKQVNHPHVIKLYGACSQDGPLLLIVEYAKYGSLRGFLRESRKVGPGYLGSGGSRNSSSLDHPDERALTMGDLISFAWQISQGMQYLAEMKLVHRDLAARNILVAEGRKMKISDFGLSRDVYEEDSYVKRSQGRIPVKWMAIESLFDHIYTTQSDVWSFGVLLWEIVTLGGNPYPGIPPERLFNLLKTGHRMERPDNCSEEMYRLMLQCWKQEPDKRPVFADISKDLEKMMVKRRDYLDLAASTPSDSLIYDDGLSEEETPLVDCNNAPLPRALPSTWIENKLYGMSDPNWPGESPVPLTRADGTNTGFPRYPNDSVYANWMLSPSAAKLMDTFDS
T2 sequence (P07949 29-1114 G810S/M918T): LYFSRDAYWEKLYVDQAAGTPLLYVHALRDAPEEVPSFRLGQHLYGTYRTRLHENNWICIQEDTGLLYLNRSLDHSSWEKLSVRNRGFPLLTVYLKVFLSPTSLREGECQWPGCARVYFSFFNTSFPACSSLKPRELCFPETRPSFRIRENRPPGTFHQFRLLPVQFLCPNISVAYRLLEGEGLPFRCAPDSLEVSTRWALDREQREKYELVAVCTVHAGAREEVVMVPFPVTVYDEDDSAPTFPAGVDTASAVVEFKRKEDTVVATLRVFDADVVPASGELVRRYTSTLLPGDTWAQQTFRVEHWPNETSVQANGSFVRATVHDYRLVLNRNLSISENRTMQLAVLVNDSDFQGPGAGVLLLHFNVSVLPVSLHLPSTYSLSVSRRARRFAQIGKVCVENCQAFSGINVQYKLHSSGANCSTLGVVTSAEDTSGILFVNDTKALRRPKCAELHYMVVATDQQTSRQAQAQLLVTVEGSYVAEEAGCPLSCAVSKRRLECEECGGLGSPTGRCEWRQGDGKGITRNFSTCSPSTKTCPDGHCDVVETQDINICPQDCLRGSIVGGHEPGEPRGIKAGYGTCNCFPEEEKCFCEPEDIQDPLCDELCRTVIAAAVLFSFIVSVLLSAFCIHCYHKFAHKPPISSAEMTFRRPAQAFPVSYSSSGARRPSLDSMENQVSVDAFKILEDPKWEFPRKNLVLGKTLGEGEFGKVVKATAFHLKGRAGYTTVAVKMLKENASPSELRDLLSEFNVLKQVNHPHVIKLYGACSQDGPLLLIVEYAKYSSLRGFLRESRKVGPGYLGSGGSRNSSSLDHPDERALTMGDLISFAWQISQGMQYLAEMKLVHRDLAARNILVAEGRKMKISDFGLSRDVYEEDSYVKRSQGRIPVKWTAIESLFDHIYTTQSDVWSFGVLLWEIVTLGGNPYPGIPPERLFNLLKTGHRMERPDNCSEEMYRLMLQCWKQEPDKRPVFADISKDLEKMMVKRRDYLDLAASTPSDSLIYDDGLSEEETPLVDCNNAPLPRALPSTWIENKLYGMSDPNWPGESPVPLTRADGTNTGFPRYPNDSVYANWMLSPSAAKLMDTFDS
T3 sequence (P07949 29-1114 G810R): as the sequence (P07949 29-1114 G810S/M918T) above, with S782R, T890M counted along it

Turning to `CCCCNc1cc(-c2ccc(N3CC[C@H](NC(=O)c4ccccc4F)C3)nc2)c2nccnc2c1` [Example 15, (S)-N-(1-(5-(7-(butylamino)quinoxalin-5-yl)pyridin-2-yl)pyrrolidin-3-yl)-2-fluorobenzamide], the remaining activity at 10 µM was 1.08% on RET-CCDC6 (PTC1) (setting [1]), 1.1% at RET-CCDC6 (PTC1) (setting [2]), -0.06% at RET (G810S/M918T) (setting [3]) and -0.2% at RET (G810S/M918T) (setting [4]). In the experiment with A-549, the “Cell Proliferation (% of control)” value was 51.55%.
With `CC(C)CNc1cc(-c2ccc(N3CC[C@H](NC(=O)c4ccccc4F)C3)nc2)c2nccnc2c1` [Example 16, (S)-2-fluoro-N-(1-(5-(7-(isobutylamino)quinoxalin-5-yl)pyridin-2-yl)pyrrolidin-3-yl)benzamide], the remaining activity at 10 µM at RET-CCDC6 (PTC1) (setting [1]) worked out at 1.21%; on RET-CCDC6 (PTC1) (setting [2]), 1.51%; at RET (G810S/M918T) (setting [3]), 3.39%; on RET (G810S/M918T) (setting [4]), 3.22%. In the experiment with A-549, the “Cell Proliferation (% of control)” value came to 65.29%.
For `O=C(Nc1cc(-c2ccc(N3CC[C@H](NC(=O)c4ccccc4F)C3)nc2)c2nccnc2c1)c1ccco1` [Example 17, (S)-N-(8-(6-(3-(2-fluorobenzamido)pyrrolidin-1-yl)pyridin-3-yl)quinoxalin-6-yl)furan-2-carboxamide], in that order: 1.15%, 1.33%, 11.9%, 11.9% and 48.96%.
For `O=C(Nc1cc(-c2ccc(N3CC[C@H](NC(=O)c4ccccc4F)C3)nc2)c2nccnc2c1)c1ccccn1` [Example 18, (S)-N-(8-(6-(3-(2-fluorobenzamido)pyrrolidin-1-yl)pyridin-3-yl)quinoxalin-6-yl)picolinamide], the remaining activity at 10 µM at RET-CCDC6 (PTC1) (setting [1]) came to 1.9%; at RET-CCDC6 (PTC1) (setting [2]), 2.31%; on RET (G810S/M918T) (setting [3]), 24.7%; at RET (G810S/M918T) (setting [4]), 25.5%. Further, the “Cell Proliferation (% of control)” value in the experiment on A-549 was determined as 35.32%.
For `Nc1cc(-c2ccc(N3CCOCC3)nc2)c2nccnc2c1` [Example 19, 8-(6-morpholinopyridin-3-yl)quinoxalin-6-amine], in that order: 5.69%, 6.45%, 27.3%, 26.3% and 71.46%.
For `CN1CCN(c2ccc(-c3cc(N)cc4nccnc34)cn2)CC1` [Example 20, 8-(6-(4-methylpiperazin-1-yl)pyridin-3-yl)quinoxalin-6-amine], in that order: 12.9%, 15.3%, 48.1%, 45% and 81.61%.
Consider `CCN1CCN(c2ccc(-c3cc(N)cc4nccnc34)cn2)CC1` [Example 21, 8-(6-(4-ethylpiperazin-1-yl)pyridin-3-yl)quinoxalin-6-amine], for which the remaining activity at 10 µM at RET-CCDC6 (PTC1) (setting [1]) is 26%; on RET-CCDC6 (PTC1) (setting [2]) it was 28%; at RET (G810S/M918T) (setting [3]) it was 66.7%; on RET (G810S/M918T) (setting [4]) it was 63.3%. In the experiment on A-549, the “Cell Proliferation (% of control)” value turned out to be 64.90%.
With `CCS(=O)(=O)N1CCN(c2ccc(-c3cc(N)cc4nccnc34)cn2)CC1` [Example 22, 8-(6-(4-(ethylsulfonyl)piperazin-1-yl)pyridin-3-yl)quinoxalin-6-amine], the remaining activity at 10 µM on RET-CCDC6 (PTC1) (setting [1]) is 2.9%; on RET-CCDC6 (PTC1) (setting [2]) it was 3.03%; on RET (G810S/M918T) (setting [3]), 15.7%; at RET (G810S/M918T) (setting [4]) it was 15.1%. The “Cell Proliferation (% of control)” value in the experiment with A-549 was 68.42%.
Regarding `Nc1cc(-c2ccc(N3CCN(c4ccccn4)CC3)nc2)c2nccnc2c1` [Example 23, 8-(6-(4-(pyridin-2-yl)piperazin-1-yl)pyridin-3-yl)quinoxalin-6-amine], the remaining activity at 10 µM at RET-CCDC6 (PTC1) (setting [1]) came to 1.92%; on RET-CCDC6 (PTC1) (setting [2]), 2.29%; at RET (G810S/M918T) (setting [3]) it was 9.23%; at RET (G810S/M918T) (setting [4]) it was 9.45%. In addition, the “Cell Proliferation (% of control)” value in the experiment with A-549 amounted to 78.36%.
For the compound `Nc1cc(-c2ccc(N3CCN(Cc4ccc(Br)cc4)CC3)nc2)c2nccnc2c1` [Example 24, 8-(6-(4-(4-bromobenzyl)piperazin-1-yl)pyridin-3-yl)quinoxalin-6-amine], the remaining activity at 10 µM on RET-CCDC6 (PTC1) (setting [1]) was 1.51%; at RET-CCDC6 (PTC1) (setting [2]), 1.27%; at RET (G810S/M918T) (setting [3]) it was 2.24%; on RET (G810S/M918T) (setting [4]) it was 2.38%. Besides, in the experiment on A-549, the “Cell Proliferation (% of control)” value is 15.35%.
Take `Nc1cc(-c2ccc(N3CCC(N4CCOCC4)CC3)nc2)c2nccnc2c1` [Example 25, 8-(6-(4-morpholinopiperidin-1-yl)pyridin-3-yl)quinoxalin-6-amine]: the remaining activity at 10 µM was found to be 18.3% on RET-CCDC6 (PTC1) (setting [1]), 20.4% at RET-CCDC6 (PTC1) (setting [2]), 46.8% at RET (G810S/M918T) (setting [3]) and 45.2% at RET (G810S/M918T) (setting [4]). Also, the “Cell Proliferation (% of control)” value with A-549 was determined as 75.52%.
For `CCNc1cc(-c2ccc(N3CCN(Cc4ccc(Br)cc4)CC3)nc2)c2nccnc2c1` [Example 26, 8-(6-(4-(4-bromobenzyl)piperazin-1-yl)pyridin-3-yl)-N-ethylquinoxalin-6-amine], the remaining activity at 10 µM at RET-CCDC6 (PTC1) (setting [1]) amounted to 0.94%; on RET-CCDC6 (PTC1) (setting [2]) it was 1.32%; at RET (G810S/M918T) (setting [3]) it was 1.23%; at RET (G810S/M918T) (setting [4]) it was 1.3%. For the same compound, the “Cell Proliferation (% of control)” value in the experiment with A-549 came out at 79.51%.
On to `Nc1cc(-c2cnc(N3CC(Oc4cccc(F)c4)C3)nc2)c2nccnc2c1` [Example 29, 8-(2-(3-(3-fluorophenoxy)azetidin-1-yl)pyrimidin-5-yl)quinoxalin-6-amine], for which the remaining activity at 0.1 µM at RET(G810R) was found to be 76.3%. The remaining activity at 10 µM at RET-CCDC6 (PTC1) (setting [1]) is 1.22%; at RET-CCDC6 (PTC1) (setting [2]), 1.07%; at RET (G810S/M918T) (setting [3]), 0.28%; on RET (G810S/M918T) (setting [4]), 0.11%. The “Cell Proliferation (% of control)” value in the experiment with A-549 came out at 12.87%.
`Nc1cc(-c2cnc(N3CC[C@H](NC(=O)c4ccccc4F)C3)nc2)c2nccnc2c1` [Example 30, (S)-N-(1-(5-(7-aminoquinoxalin-5-yl)pyrimidin-2-yl)pyrrolidin-3-yl)-2-fluorobenzamide]: the remaining activity at 10 µM on RET-CCDC6 (PTC1) (setting [1]) is 1.19%; on RET-CCDC6 (PTC1) (setting [2]), 1.2%; at RET (G810S/M918T) (setting [3]) it was 0.97%; at RET (G810S/M918T) (setting [4]), 0.98%. Moreover, in the experiment on A-549, the “Cell Proliferation (% of control)” value came to 42.94%.
